Consider 28 molecules from ChEMBL document CHEMBL3046879, “Synthesis, antimicrobial evaluation, and QSAR analysis of 2-isopropyl-5-methylcyclohexanol derivatives” (Med Chem Res, 2012).

Structures are written as SMILES.

One data set concerns Candida albicans. Briefly: Antimicrobial activity against Candida albicans MTCC 227 after 2 days by serial dilution method. The format is functional.
In a further data set the test system is Bacillus subtilis. Briefly: Antimicrobial activity against Bacillus subtilis MTCC 2423 after 24 hr by serial dilution method. Format: functional.
Another data set deals with Staphylococcus aureus. Put plainly: Antimicrobial activity against Staphylococcus aureus MTCC 1430 after 24 hr by serial dilution method. Format: functional.
A further data set relates to Escherichia coli. Briefly: Antimicrobial activity against Escherichia coli MTCC 739 after 24 hr by serial dilution method. Format: functional.
Data set [1] can be described thus: Octanol-water partition coefficient, log P of the compound. The format is physicochemical.
Another data set concerns Aspergillus niger. Put plainly: Antimicrobial activity against Aspergillus niger MTCC 2425 after 7 days by serial dilution method. Format: functional.

By logP is commonly meant a log measure of how a compound divides between an organic and an aqueous phase. For `COc1ccccc1C(=O)O[C@@H]1C[C@H](C)CC[C@H]1C(C)C`, the “-logMIC” value in the data set with Candida albicans is reported as 1.97; in the data set on Bacillus subtilis, 1.98; in the data set with Staphylococcus aureus, 2.06; in the data set on Escherichia coli it was 1.97; in the data set on Aspergillus niger it was 2.07. The molecule further came in with a logP in data set [1] of 4.57.
Regarding `CC(Cl)C(=O)O[C@@H]1C[C@H](C)CC[C@H]1C(C)C` (stereo partly specified), the “-logMIC” value in the data set on Candida albicans is 1.9; in the data set on Bacillus subtilis it was 1.9; in the data set with Staphylococcus aureus it was 1.6; with Escherichia coli it was 1.9; in the data set with Aspergillus niger, 1.9. The molecule further returned a logP in data set [1] of 4.04.
On to `CC(C)[C@@H]1CC[C@@H](C)C[C@H]1OC(=O)CCl`, for which the “-logMIC” value in the data set on Candida albicans worked out at 1.87; in the data set with Bacillus subtilis, 1.86; in the data set with Staphylococcus aureus, 2; in the data set on Escherichia coli, 1.79; in the data set on Aspergillus niger, 2.17. For the same molecule, the logP in data set [1] came out at 3.5.
In the case of `CCC(=O)O[C@@H]1C[C@H](C)CC[C@H]1C(C)C`, the “-logMIC” value with Candida albicans is on record as 1.83; in the data set with Bacillus subtilis, 1.88; with Staphylococcus aureus, 1.75; in the data set on Escherichia coli, 1.75; in the data set on Aspergillus niger it was 2.13. This molecule also displayed a log partition coefficient (logP) in data set [1] of 3.54.
Consider `CC(=O)O[C@@H]1C[C@H](C)CC[C@H]1C(C)C`, for which the “-logMIC” value is 1.8 in the data set on Candida albicans; 1.8 in the data set on Bacillus subtilis; 1.5 in the data set on Staphylococcus aureus; 1.5 in the data set with Escherichia coli; 1.98 in the data set on Aspergillus niger. The lipophilicity (logP) in data set [1] was determined as 2.91.
Consider `CC(C)[C@@H]1CC[C@@H](C)C[C@H]1OC(=O)/C=C/c1ccc([N+](=O)[O-])cc1`, for which the “-logMIC” value in the data set on Candida albicans came out at 2.33; in the data set on Bacillus subtilis, 2.33; with Staphylococcus aureus, 2.03; in the data set with Escherichia coli, 2.33; in the data set on Aspergillus niger it was 2.18. The same molecule gave a logP in data set [1] of 5.18.
For the molecule `CC(C)[C@@H]1CC[C@@H](C)C[C@H]1OC(=O)/C=C/c1cccc([N+](=O)[O-])c1`, the “-logMIC” value is 2.33 in the data set on Candida albicans; 2.03 with Bacillus subtilis; 2.33 in the data set on Staphylococcus aureus; 2.14 in the data set on Escherichia coli; 2.33 with Aspergillus niger. This molecule also returned a lipophilicity (logP) in data set [1] of 5.18.
As for `CC(C)[C@@H]1CC[C@@H](C)C[C@H]1OC(=O)/C=C/c1ccccc1[N+](=O)[O-]`, the “-logMIC” value with Candida albicans worked out at 2.33; in the data set with Bacillus subtilis, 2.03; in the data set on Staphylococcus aureus, 2.33; with Escherichia coli, 2.33; in the data set with Aspergillus niger, 2.33. The same molecule showed a logP in data set [1] of 5.18.
Turning to `CC(C)[C@@H]1CC[C@@H](C)C[C@H]1OC(=O)/C=C/c1ccccc1`, the “-logMIC” value with Candida albicans is on record as 1.96; in the data set with Bacillus subtilis, 2.26; with Staphylococcus aureus, 1.96; in the data set on Escherichia coli, 1.96; in the data set with Aspergillus niger, 2.01. This molecule also yielded a log partition coefficient (logP) in data set [1] of 5.23.
With `Cc1cccc(C(=O)O[C@@H]2C[C@H](C)CC[C@H]2C(C)C)c1`, the “-logMIC” value is on record as 1.94 in the data set on Candida albicans; 2.02 in the data set with Bacillus subtilis; 2.05 with Staphylococcus aureus; 1.93 in the data set with Escherichia coli; 2.03 with Aspergillus niger. Moreover, the lipophilicity (logP) in data set [1] turned out to be 5.29.
On to `Cc1ccc(C(=O)O[C@@H]2C[C@H](C)CC[C@H]2C(C)C)cc1`, for which the “-logMIC” value was 1.94 in the data set on Candida albicans; 2.1 in the data set on Bacillus subtilis; 1.85 with Staphylococcus aureus; 1.9 in the data set with Escherichia coli; 2.04 with Aspergillus niger. Further, in data set [1], the logP turned out to be 5.29.
For the molecule `Cc1ccccc1C(=O)O[C@@H]1C[C@H](C)CC[C@H]1C(C)C`, the “-logMIC” value in the data set on Candida albicans was 1.64; with Bacillus subtilis, 1.94; with Staphylococcus aureus, 1.94; in the data set with Escherichia coli it was 2.01; in the data set on Aspergillus niger, 1.94. In addition, the logP in data set [1] was determined as 5.29.
For the molecule `COc1ccc(C(=O)O[C@@H]2C[C@H](C)CC[C@H]2C(C)C)cc1`, the “-logMIC” value in the data set with Candida albicans was 1.67; in the data set on Bacillus subtilis, 2.01; with Staphylococcus aureus, 2.01; with Escherichia coli it was 1.98; with Aspergillus niger, 2.04. The logP in data set [1] was found to be 4.57.
As to `COc1cccc(C(=O)O[C@@H]2C[C@H](C)CC[C@H]2C(C)C)c1`, the “-logMIC” value with Candida albicans was determined as 1.97; in the data set with Bacillus subtilis, 1.99; in the data set on Staphylococcus aureus it was 1.97; in the data set with Escherichia coli, 1.97; with Aspergillus niger it was 2.11. Further, the logP in data set [1] stood at 4.57.
Regarding `CC(C)[C@@H]1CC[C@@H](C)C[C@H]1OC(=O)c1ccc([N+](=O)[O-])cc1[N+](=O)[O-]`, the “-logMIC” value with Candida albicans is recorded as 2.05; with Bacillus subtilis, 2.05; in the data set with Staphylococcus aureus it was 2.35; in the data set on Escherichia coli, 2.35; in the data set on Aspergillus niger it was 2.05. The molecule also came in with a logP in data set [1] of 4.73.
As for `CC(C)[C@@H]1CC[C@@H](C)C[C@H]1OC(=O)c1ccc([N+](=O)[O-])cc1`, the “-logMIC” value with Candida albicans was 2.29; in the data set on Bacillus subtilis it was 2.02; in the data set with Staphylococcus aureus, 2.29; in the data set on Escherichia coli, 1.99; in the data set with Aspergillus niger, 2.18. This molecule showed a logP in data set [1] of 4.78.
As to `CC(C)[C@@H]1CC[C@@H](C)C[C@H]1OC(=O)c1cccc([N+](=O)[O-])c1`, the “-logMIC” value came out at 2.33 in the data set with Candida albicans; 1.99 in the data set with Bacillus subtilis; 2.29 in the data set with Staphylococcus aureus; 2.29 in the data set on Escherichia coli; 2.29 in the data set with Aspergillus niger. In data set [1], this molecule registered a lipophilicity (logP) of 4.78.
In the case of `CC(C)[C@@H]1CC[C@@H](C)C[C@H]1OC(=O)c1ccc(Cl)cc1Cl`, the “-logMIC” value in the data set on Candida albicans worked out at 1.72; in the data set on Bacillus subtilis, 1.96; in the data set on Staphylococcus aureus it was 2.02; in the data set with Escherichia coli, 2.02; in the data set on Aspergillus niger, 1.95. In addition, the log partition coefficient (logP) in data set [1] worked out at 5.86.
Consider `CC(C)[C@@H]1CC[C@@H](C)C[C@H]1OC(=O)c1ccccc1[N+](=O)[O-]`, for which the “-logMIC” value in the data set on Candida albicans is 2.29; in the data set with Bacillus subtilis, 2.03; in the data set on Staphylococcus aureus, 1.99; with Escherichia coli it was 2.29; in the data set with Aspergillus niger, 2.17. The logP in data set [1] worked out at 4.78.
Turning to `CC(C)[C@@H]1CC[C@@H](C)C[C@H]1OC(=O)c1ccc(Cl)cc1`, the “-logMIC” value in the data set with Candida albicans turned out to be 1.67; with Bacillus subtilis, 1.97; with Staphylococcus aureus it was 1.88; with Escherichia coli, 1.67; in the data set with Aspergillus niger it was 2.05. This molecule also gave a logP in data set [1] of 5.34.
As to `CC(C)[C@@H]1CC[C@@H](C)C[C@H]1OC(=O)c1cccc(Cl)c1`, the “-logMIC” value came to 1.97 in the data set on Candida albicans; 1.97 with Bacillus subtilis; 1.97 in the data set with Staphylococcus aureus; 1.88 with Escherichia coli; 1.97 with Aspergillus niger. In data set [1], this molecule gave a lipophilicity (logP) of 5.34.
Take `CC(C)[C@@H]1CC[C@@H](C)C[C@H]1OC(=O)c1ccc(Br)cc1`: the “-logMIC” value was 1.85 in the data set on Candida albicans; 2.04 with Bacillus subtilis; 1.98 in the data set on Staphylococcus aureus; 2.02 in the data set on Escherichia coli; 2.04 in the data set with Aspergillus niger. Besides, in data set [1], the lipophilicity (logP) turned out to be 5.61.
Turning to `CC(C)[C@@H]1CC[C@@H](C)C[C@H]1OC(=O)c1ccccc1Cl`, the “-logMIC” value came out at 1.97 in the data set on Candida albicans; 1.91 with Bacillus subtilis; 1.97 in the data set on Staphylococcus aureus; 2.1 in the data set on Escherichia coli; 2.1 in the data set on Aspergillus niger. Besides, the logP in data set [1] turned out to be 5.34.
`CC(C)[C@@H]1CC[C@@H](C)C[C@H]1OC(=O)c1cccc(Br)c1`: the “-logMIC” value is reported as 2.04 in the data set with Candida albicans; 1.96 in the data set on Bacillus subtilis; 1.96 in the data set with Staphylococcus aureus; 1.88 in the data set with Escherichia coli; 2.04 in the data set with Aspergillus niger. Also, the logP in data set [1] was found to be 5.61.
Regarding `CC(C)[C@@H]1CC[C@@H](C)C[C@H]1OC(=O)c1ccccc1Br`, the “-logMIC” value in the data set with Candida albicans amounted to 2.04; with Bacillus subtilis it was 2.04; with Staphylococcus aureus, 2.04; with Escherichia coli, 1.98; in the data set on Aspergillus niger, 2.04. The same molecule yielded a log partition coefficient (logP) in data set [1] of 5.61.
With `OC(Cn1cncn1)(Cn1cncn1)c1ccc(F)cc1F` [FLUCONAZOLE], the “-logMIC” value in the data set with Candida albicans and in the data set on Aspergillus niger was 2.64 each time.
On to `CC(C)[C@@H]1CC[C@@H](C)C[C@H]1OC(=O)c1ccccc1` [MENTHYL BENZOATE], for which the “-logMIC” value in the data set on Candida albicans is on record as 1.92; in the data set with Bacillus subtilis, 2.01; in the data set with Staphylococcus aureus, 1.92; in the data set on Escherichia coli, 2.01; in the data set on Aspergillus niger, 1.92. Also, in data set [1], the lipophilicity (logP) was found to be 4.82.
Take `CCn1cc(C(=O)O)c(=O)c2cc(F)c(N3CCNCC3)cc21` [NORFLOXACIN]: the “-logMIC” value in the data set with Bacillus subtilis, with Staphylococcus aureus and in the data set on Escherichia coli was 2.61 in each case.
